According to US5129937A, “Pyridyloxypyrimidine derivatives, preparation process thereof, and herbicidal compositions containing the same as active ingredients” (Mitsui Toatsu Chemicals Incorporated, priority 1989, dated 1992):

Assays:
Common lambsquarters = experiment: Upland Soil Application Test; assay type: in vivo; conditions: 30 g ai/a; soil application before emergence, wettable powder; observed 30 days later
Procedure: (§1) Resin-made 1/2500-are pots were filled with the soil of an upland field. After they were fertilized, soybean, corn and cotton were seeded and 2-3 cm soil covering was applied. Seeds of redroot pigweed, morningglory (Ipomoea purpurea), common lambsquarters, barnyardgrass, green foxtail, large crabgrass, foxtail meadow and johnsongrass had been uniformly mixed with the soil. They were allowed to germinate in a green house. One day later (before emergence of weeds), a wettable powder prepared from a predetermined amount of each test compound in a similar manner to the method described in Formulation Example 1 was diluted with water and then sprayed evenly at an application rate equal to 10 l per are onto the surface of the soil by means of a pressure-operated ULV (ultra low volume) sprayer. Influence to the crops and weeds were observed 30 days later. The results are shown in Table 3, in which the degree of damages of each test plant and the degree of injury to each crop were determined by comparing the air-dried weights of the test plant and crop with those of the corresponding plant and crop in untreated pots and are shown in accordance with the following standard: […]

Redroot Pigweed = experiment: Upland Soil Application Test; assay type: in vivo; conditions: 30 g ai/a; soil application before emergence, wettable powder; observed 30 days later
Procedure: as §1

[1] = tested on: Foxtail (Setaria viridis); experiment: Upland Soil Application Test; assay type: in vivo; conditions: 30 g ai/a; soil application before emergence, wettable powder; observed 30 days later
Procedure: as §1

[2] = tested on: Barnyardgrass (Echinochloa crus-galli); experiment: Upland Soil Application Test; assay type: in vivo; conditions: 30 g ai/a; soil application before emergence, wettable powder; observed 30 days later
Procedure: as §1

[3] = tested on: Crabgrass (Digitaria adsendens); experiment: Upland Soil Application Test; assay type: in vivo; conditions: 30 g ai/a; soil application before emergence, wettable powder; observed 30 days later
Procedure: as §1

Foxtail meadow = experiment: Upland Soil Application Test; assay type: in vivo; conditions: 30 g ai/a; soil application before emergence, wettable powder; observed 30 days later
Procedure: as §1

Johnsongrass = experiment: Upland Soil Application Test; assay type: in vivo; conditions: 30 g ai/a; soil application before emergence, wettable powder; observed 30 days later
Procedure: as §1

[4] = tested on: Cotton (Gossypium indicum); experiment: Upland Soil Application Test, crop injury; assay type: in vivo; conditions: 30 g ai/a; soil application before emergence, wettable powder; observed 30 days later
Procedure: as §1

Corn (Zea maize) = experiment: Upland Soil Application Test, crop injury; assay type: in vivo; conditions: 30 g ai/a; soil application before emergence, wettable powder; observed 30 days later
Procedure: as §1

Soybean (Glycine max) = experiment: Upland Soil Application Test, crop injury; assay type: in vivo; conditions: 30 g ai/a; soil application before emergence, wettable powder; observed 30 days later
Procedure: as §1

[5] = tested on: ALS (acetolactate synthase); experiment: ALS (Acetolactate Synthase) Inhibition Test, pea enzyme; assay type: biochemical; conditions: enzymoreaction inhibition rate at 10 ppm (5 μg/0.5 ml)
Procedure: To determine the selectivity in enzyme level between crops and weeds, an ALS inhibition test was conducted using pea as a representative of broadleaf crops and barnyardgrass as a representative of gramineous weeds.
After seeds of pea and barnyardgrass were allowed to germinate at 25° C. for 8-14 days in a dark place, partially-purified suspensions (Suspensions A) of acetolactate syntase were separately obtained from seedlings in accordance with the method described in the literature, Plant Physiology, 75, 827-831. In a test tube, […], followed by the addition of 0.15 ml of a 20 mM K2 HPO4 solution and 0.25 ml of a reaction substrate medium which consisted of 40 mM of K2 HPO4, 40 mM of sodium pyruvate, 1 mM of TPP, 1 mM of MgCl2 and 20 μM of FAD so that 0.4 ml of a reaction solution (Solution B) was prepared. Added to 0.4 ml of Solution B was 0.1 ml of Suspension A. After the resultant mixture was shaken for 1 hour in a thermostat water bath controlled at 30° C., 50 μl of 6N sulfuric acid were added to terminate the reaction.
Next, the reaction-terminated liquid mixture was transferred into a thermostat water bath controlled at 60° C. and was heated for 15 minutes. Thereafter, 0.5 ml of a 0.5% creatine solution and 0.5 ml of a 5% alkaline α-naphthol solution were added, and the resultant mixture was maintained at 60° C. for 15 minutes. As a result, the test solution developed a pink-red color. After the above operation, the absorbance of the test solution at 525 nm was measured by a spectrophotometer (Absorbance 1 of Test Compound).
On the other hand, the absorbance (Absorbance 2 of Blank) of a solution obtained by subjecting a portion of Solution B, said portion being free of the test compound, to the above operation and the absorbance (Absorbance 3 of sulfuric acid terminated) of another solution obtained by subjecting another portion of Solution B, said portion containing 50 μl of 6N sulfuric acid as a test compound, were measured at the same time. […] [formula]

Rice (Oryza sativa) = experiment: Submerged Soil Treatment Test (Pre-Emergence Treatment), crop injury; assay type: in vivo; conditions: 30 g ai/a, granule, transplanted rice, observed 30 days later
Procedure: (§2) 1/5000-are Wagner pots were filled with soil. Seeds or tubers of barnyardgrass, bulrush and Sagittaria pygmaea were seeded or planted under submerged condition. Two pairs of rice seedlings (2-3 leaf stage), which had been reared in advance, were transplanted to each pot and were allowed to germinate in a green house. Each pair consisted of two rice seedlings. On day later (before emergence of weeds), each pot was treated with a granule which had been prepared by processing a predetermined amount of the test composition in accordance with a similar method to the method described in Formulation Example 9. The state of emergence of weeds and the state of injury of rice were observed 30 days later. In the table, the degrees of damages of the test plants and the degrees of injury of rice are shown in a similar manner to Example 2.

[6] = tested on: Arrowhead sp. (Sagittaria pygmaea); experiment: Submerged Soil Treatment Test (Growth Stage Treatment); assay type: in vivo; conditions: 30 g ai/a, growth stage treatment (barnyardgrass two-leaf stage), granule, observed 30 days later
Procedure: as §2, with “allowed to grow in a” for “allowed to germinate in a”, “rice seedlings. When the barnyardgrass grew to the two-leaf stage, each pot” for “rice seedlings. On day later (before emergence of weeds), each pot”, “injury of the rice are” for “injury of rice are”

[7] = tested on: Barnyardgrass (Echinochloa crus-galli); experiment: as above; assay type: in vivo; conditions: 30 g ai/a, growth stage treatment (barnyardgrass two-leaf stage), granule, observed 30 days later
Procedure: as §2, with “allowed to grow in a” for “allowed to germinate in a”, “rice seedlings. When the barnyardgrass grew to the two-leaf stage, each pot” for “rice seedlings. On day later (before emergence of weeds), each pot”, “injury of the rice are” for “injury of rice are”

[8] = tested on: Bulrush (Scirpus juncoides); experiment: as above; assay type: in vivo; conditions: 30 g ai/a, growth stage treatment (barnyardgrass two-leaf stage), granule, observed 30 days later
Procedure: as §2, with “allowed to grow in a” for “allowed to germinate in a”, “rice seedlings. When the barnyardgrass grew to the two-leaf stage, each pot” for “rice seedlings. On day later (before emergence of weeds), each pot”, “injury of the rice are” for “injury of rice are”

SMILES	Herbicidal effects Common lambquarters (Common lambsquarters)	Herbicidal effects Redroot Pigweed (Redroot Pigweed)	Herbicidal effects Foxtail (Setaria viridis) [1]	Herbicidal effects Barnyardgrass (Echinochloa crus-galli) [2]	Herbicidal effects Crabgrass (Digitaria adsendens) [3]	Herbicidal effects Foxtail meadow (Foxtail meadow)	Herbicidal effects Johnsongrass (Johnsongrass)	Crop injury Cotton (Gossypium indicum) [4]	Crop injury Corn (Zea maize) (Corn (Zea maize))	Crop injury Soybean (Glycine max) (Soybean (Glycine max))	Inhibition rate (%) Pea [5]	Crop injury Rice (Oryza sativa) (Rice (Oryza sativa))	Herbicidal effects Arrowhead sp. (Sagittaria pygmaea) [6]	Herbicidal effects Barnyardgrass (Echinochloa crus-galli) [7]	Herbicidal effects Bulrush (Scirpus juncoides) [8]
COc1cc(OC)nc(Oc2cccnc2C(OC)OC(C)C)n1 (stereo not drawn) [Compound No. 5, 3-(4.6-dimethoxy-2-pyrimidinyloxy)-2-pyridinecarboxaldehyde isopropylmethylacetal]	5 (0-5 (Death))	5 (0-5 (Death))	5 (0-5 (Death))	4 (6-10 (Severe damages))	4 (6-10 (Severe damages))	5 (0-5 (Death))	5 (0-5 (Death))	0 (91-100 (No damages))	0 (91-100 (No damages))	0 (91-100 (No damages))	0%	0 (91-100 (No damages))	5 (0-5 (Death))	5 (0-5 (Death))	5 (0-5 (Death))
COc1cc(OC)nc(Oc2cccnc2C2OCCO2)n1 [Compound No. 6]	4 (6-10 (Severe damages))	4 (6-10 (Severe damages))	4 (6-10 (Severe damages))	3 (11-40 (Medium damages))	3 (11-40 (Medium damages))	4 (6-10 (Severe damages))	5 (0-5 (Death))	0 (91-100 (No damages))	0 (91-100 (No damages))	0 (91-100 (No damages))	0%	0 (91-100 (No damages))	3 (11-40 (Medium damages))	5 (0-5 (Death))	5 (0-5 (Death))
COc1cc(OC)nc(Oc2cccnc2C2OCC(C)O2)n1 (stereo not drawn) [Compound No. 7]	4 (6-10 (Severe damages))	4 (6-10 (Severe damages))	5 (0-5 (Death))	5 (0-5 (Death))	4 (6-10 (Severe damages))	4 (6-10 (Severe damages))	5 (0-5 (Death))	0 (91-100 (No damages))	0 (91-100 (No damages))	0 (91-100 (No damages))	0%	0 (91-100 (No damages))	4 (6-10 (Severe damages))	5 (0-5 (Death))	4 (6-10 (Severe damages))
COc1cc(OC)nc(Oc2cccnc2C2OCCCO2)n1 [Compound No. 8]	3 (11-40 (Medium damages))	3 (11-40 (Medium damages))	3 (11-40 (Medium damages))	4 (6-10 (Severe damages))	3 (11-40 (Medium damages))	4 (6-10 (Severe damages))	4 (6-10 (Severe damages))	0 (91-100 (No damages))	0 (91-100 (No damages))	0 (91-100 (No damages))	0%	0 (91-100 (No damages))	2 (41-70 (Small damages))	4 (6-10 (Severe damages))	2 (41-70 (Small damages))
